Reference: patent US20240287489A1, “CHITINOLYTIC ENZYME-BASED PLANT PROTECTION AGENTS” (GLOBACHEM NV, priority 2021, published 2024)

Legend:
Assay in all cases: Effect of metallic ions and chemical compounds on chitinase activity
Format in all cases: biochemical, P. orarium
Conditions in all cases: relative to standard MAT buffer control (100%); ions and EDTA 1 mM, Tween 20 0.5% v/v, SDS 0.5% w/v; 2 μM enzyme
[1] = system: recombinant chitinase C4
Experimental: (§1) The addition of different co-factors and chemicals was assessed to determine whether they stimulate or inhibit enzymatic activity and the effect was evaluated relative to the control in standard MAT buffer (33 mM 2-(N-morpholino) ethanesulfonic acid (MES), 33 mM sodium acetate, 33 mM Tris(hydroxymethyl) aminomethane (TRIS); pH 8.0). The selection of tested compounds at the respective concentrations was based on findings for different chitinases so far [Zarei et al., J. Microbiol., 2011. 42: p. 1017-1029.]. […] All enzymes were inhibited the strongest by Zn2+ and Cu2+ and SDS (0.5% w/v) resulting in a relative loss of activity of up to 99%. […] Inhibitory effects of Ni2+ and imidazole on enzymatic activity also underline the requirement for dialysis of the elution fractions after purification in order to remove residual Ni2+ and imidazole from the elution buffer.
(§2) Enzyme samples were incubated at different temperature (10-60° C., 10° C. increment) and pH (4-11, increment 1) using different buffer systems (Acetate, Tris-HCl, MES, total molar concentration 100 mM), as well as NaCl content (0, 1. 2.5, 5, 10 and 20% w/v) to determine optimum reaction conditions. All experiments were carried out at 1.0 ml scale using 2 μM of the respective enzymes and a 5% (wv) suspension of chitin powder extracted from shrimp shells (˜400.000 g/mol; Carl, Roth) in 100 mM MAT buffer. For the determination of the substrate specificity, chitin powder (5% w/v), glycol chitin (10% v/v), colloidal chitin (5% w/v), chitosan [DA 15-25%, medium molecular weight, Sigma-Aldrich] (5% w/v) and microcrystalline cellulose powder (Sigma Aldrich) (5% w/v) were investigated, respectively. The effect of several potential co-factors on activity was elucidated at a concentration of 1 mM. Additionally, the effect of detergents [SDS 0.5% (w/v), Tween-20 and Triton X-100 both at 0.5% (v/v)] and chemicals (Imidazole 100 mM, EDTA 1 mM) on enzymatic activity was assessed. Samples were incubated in a thermomixer for 16 h at 900 rpm. After incubation, samples were analyzed using the enzyme assay. Thermostability was assessed after incubation of recombinant chitinases at 60° C. for different durations followed by the quantification of residual enzyme activity under standard assay conditions.

[2] = system: recombinant chitinase C1
Experimental: as §1, §2

[3] = system: recombinant chitinase C5
Experimental: as §1, §2

[4] = system: recombinant chitinase C3
Experimental: as §1, §2

[5] = system: recombinant chitinase C2
Experimental: as §1, §2

Row | Compound | [%] Residual activity C4 [1] [%] | [%] Residual activity C1 [2] [%] | [%] Residual activity C5 [3] [%] | [%] Residual activity C3 [4] [%] | [%] Residual activity C2 [5] [%]
1 | CCCCCCCCCCCCOS(=O)(=O)[O-].[Na+] [SDS, sodium dodecyl sulfate] | 33.2 ± 3.4 | 1.5 ± 0.2 | 19.9 ± 0.3 | 2.4 ± 1.9 | 21.6 ± 1.0
2 | O=C(O)CN(CCN(CC(=O)O)CC(=O)O)CC(=O)O [EDTA] | 73.9 ± 4.1 | 68.9 ± 0.7 | 28.0 ± 0.9 | 80.8 ± 4.8 | 20.4 ± 1.6
3 | [Mg+2] [Mg^2+] | 3.3 ± 0.2 | 99.8 ± 3.1 | 25.8 ± 0.9 | 68.8 ± 2.8 | 38.7 ± 1.7
4 | [Zn+2] [Zn^2+] | 8.1 ± 0.7 | 30.5 ± 0.3 | 0.6 ± 0.5 | 21.7 ± 0.1 | 2.3 ± 0.4
5 | [Ca+2] [Ca^2+] | 3.8 ± 0.4 | 92.7 ± 2.1 | 21.3 ± 0.1 | 94.7 ± 2.0 | 35.6 ± 1.7
6 | [K+] [K^2+] | 3.7 ± 0.2 | 100.1 ± 2.8 | 28.6 ± 0.4 | 72.6 ± 1.7 | 44.8 ± 2.3
7 | [Ni+2] [Ni^2+] | 38.8 ± 1.7 | 76.6 ± 5.1 | 5.6 ± 0.3 | 64.8 ± 1.2 | 23.0 ± 0.7
8 | [Cu+2] [Cu^2+] | 14.8 ± 3.4 | 11.1 ± 3.7 | 3.9 ± 2.9 | 16.9 ± 0.2 | 12.3 ± 0.9
